Test results as given in patent US8946413B2 (Pfizer Inc., priority 2008, dated 2015).
Read-outs that look alike come from different tables or passages of the source.

Legend:
CCR2 = target: T1, CCR2 (Homo sapiens, UniProt P41597); assay: hCCR2 (125-I hMCP-1) small molecule binding assay on human PBMCs; conditions: 125I-MCP-1, human PBMCs
T1 construct: (leukophoresis pack); host or cells: human peripheral blood mononuclear cells (PBMCs) from a normal human leukophoresis pack
Procedure, shortened: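 Ficoll-isolated human PBMCs pre-incubated 30 min or 1 h with compound at 0.333 μM final (0.67% DMSO), then incubated 30 min at room temperature with 150 pM 125I-hMCP-1 in RPMI/0.1% BSA/20 mM HEPES. Filter-bound radioactivity counted by gamma counter. 100% inhibition defined with 1 μM hMCP-1; IC50 plates run n=2.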

[1] = system: streptozotocin (STZ)-induced diabetic rat model; assay: Diabetic nephropathy rat model (STZ-induced), 24-hour urinary albumin excretion; format: in vivo; conditions: STZ diabetic male Wistar rats
Excerpt: A rat model of diabetic nephropathy was used to determine the renal protective effect of pharmacological inhibition of CCR2. The streptozotocin (STZ)-induced diabetic rat model has been extensively used for studying the progression of diabetic renal disease. STZ injection causes immediate destruction of pancreatic β-cells, consequently hyperglycemia and progression of nephropathy similar to that seen in human diabetes mellitus. Diabetes was induced in male Wistar rats by single administration of STZ (45 mp/kg, iv). Three days after the induction of diabetes, fasting blood glucose levels were assessed. Animals with fasting blood glucose levels higher than 200 mg/dL were included in the study. All the treatments were then initiated. 1,5-anhydro-2,3-dideoxy-3-{[(1R,3S)-3-isopropyl-3-({(1S,4S)-5-[6-(trifluoromethyl)pyrimidin-4-yl]-2,5-diazabicyclo[2.2.1]hept-2-yl}carbonyl)cyclopentyl]amino}-4-O-methyl-D-erythro-pentitol was administered at doses of 0.03, 0.3, 1, and 10 mg/kg (mpk) (in the chow) for 11 weeks. 24-hour urine collections were obtained at 1, 4, 8, and 11 weeks after the treatment for assessing 24-hour urinary albumin excretion (UAE).

[2] = 30 min preincubation, read-out: IC50 (nM) 30 min preinc

T1 sequence (P41597 whole entry): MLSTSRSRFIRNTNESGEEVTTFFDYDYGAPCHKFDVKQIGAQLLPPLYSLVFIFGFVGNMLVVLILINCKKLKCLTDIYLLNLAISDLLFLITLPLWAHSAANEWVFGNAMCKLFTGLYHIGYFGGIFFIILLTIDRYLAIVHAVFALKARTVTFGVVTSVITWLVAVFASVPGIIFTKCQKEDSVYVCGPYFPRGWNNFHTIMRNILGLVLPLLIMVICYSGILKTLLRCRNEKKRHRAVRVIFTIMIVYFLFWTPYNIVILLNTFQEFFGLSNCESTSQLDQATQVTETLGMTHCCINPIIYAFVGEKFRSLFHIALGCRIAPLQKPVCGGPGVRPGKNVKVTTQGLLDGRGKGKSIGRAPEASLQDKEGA

Row | SMILES | IC50 (CCR2; [2]) | IC50 (CCR2; 1 hr preincubation, read-out: IC50 (nM) 1 hr preinc) | 24-hour urinary albumin excretion (UAE) ([1]; 0.03 mpk in the chow, week 11) | 24-hour urinary albumin excretion (UAE) ([1]; 0.3 mpk in the chow, week 8) | 24-hour urinary albumin excretion (UAE) ([1]; 0.3 mpk in the chow, week 11) | 24-hour urinary albumin excretion (UAE) ([1]; 1 mpk in the chow, week 8) | 24-hour urinary albumin excretion (UAE) ([1]; 1 mpk in the chow, week 11) | 24-hour urinary albumin excretion (UAE) ([1]; 10 mpk in the chow, week 8) | 24-hour urinary albumin excretion (UAE) ([1]; 10 mpk in the chow, week 11)
1 | CO[C@@H]1COCC[C@@H]1N[C@@H]1CC[C@@](C(=O)N2C[C@@H]3C[C@H]2CN3c2cc(C(F)(F)F)ncn2)(C(C)C)C1 [Example 13, 1,5-anhydro-2,3-dideoxy-3-{[(1R,3S)-3-isopropyl-3-({(1S,4S)-5-[6-(trifluoromethyl)pyrimidin-4-yl]-2,5-diazabicyclo[2.2.1]hept-2-yl}carbonyl)cyclopentyl]amino}-4-O-methyl-D-erythro-pentitol] | 25.4 nM | 3.68 nM | 2.17±1.31 mg/24 h | 1.73±0.69 mg/24 h | 1.96±0.85 mg/24 h | 1.09±0.20 mg/24 h | 1.66±0.65 mg/24 h | 0.71±0.22 mg/24 h | 1.02±0.32 mg/24 h
2 | CO[C@@H]1COCC[C@@H]1N[C@@H]1CC[C@@](C(=O)N2C[C@@H]3C(F)[C@H]2CN3C(=O)OC(C)(C)C)(C(C)C)C1 (stereo partly drawn) [Example 71, tert-butyl 7-fluoro-5-((1S,3R)-1-isopropyl-3-((3S,4S)-3-methoxy-tetrahydro-2H-pyran-4-ylamino)cyclopentanecarbonyl)-2,5-diaza-bicyclo[2.2.1]heptane-2-carboxylate] | 3.7 nM |  |  |  |  |  |  |  | 
